Here are results for one substance from patent publication EP4755393A1, “USE OF PROTON PUMP REGULATOR IN PREPARATION OF DRUG” (Shanghai Quietd Biotechnology Co., Ltd., priority 2023, dated 2025).

“Also recorded” adds a separate entry of the source. Ends that are not written are not given here.

Assay [1] relates to hippocampal CA1 pyramidal neurons. Put plainly: Whole-cell patch-clamp recording of spontaneous excitatory postsynaptic current (sEPSC) in hippocampal brain sections. In kind it is cell-based, C57 mouse. The conditions noted are these: 5 µM polypeptide applied for 5 min; clamp voltage -70 mV; FIGS. 8A-8C. The text has this: • Polypeptide QD202 was synthesized according to the amino acid sequence set forth in SEQ ID NO: 1. • Polypeptide QD202 N'-1 was synthesized according to the amino acid sequence set forth in SEQ ID NO: 2. • Polypeptide QD202 C'-1 was synthesized according to the amino acid sequence set forth in SEQ ID NO: 3. • Polypeptide QD202 C'-2 was synthesized according to the amino acid sequence set forth in SEQ ID NO: 4. • Polypeptide SS8 was synthesized according to the amino acid sequence set forth in SEQ ID NO: 54.
0.1-0.15 ml of 20% ethyl carbamate was injected into the abdominal cavity of a C57 mouse of 2 to 3 months old for anesthesia; a head was quickly cut, and brain tissues were stripped and put into artificial cerebrospinal fluid (ACSF) ice-water mixed liquid into which mixed gas (95%O2 and 5%CO2) was introduced in advance, and stood for 2 min; the ACSF included the following components: […] of NaCl, […] of KCl, 0.12 mM of NaH2PO4, […] of CaCl2, 0.12 mM of MgCl2, 25 mM of NaHCO3 and 11 mM of glucose. A hippocampus coronal brain section of […] was cut by a vibration slicer. […] The recorded data were analyzed by Minianalysis software.
(In general: In patch-clamp work, channel activity is measured electrically.)

Assay [2] relates to APP/PS1 transgenic mice. Briefly: Novel object recognition test in AD mice. In kind it is in vivo. The conditions noted are these: continuously for 1 week.
Assay [3] relates to DIR protein. Put plainly: Co-immunoprecipitation of QD202-Biotin peptide with Flag-His-DIR (HEK 293 lysate, western blot and dot blot). The format is binding, human. The conditions noted are these: QD202-Biotin peptide added to lysate of Flag-His-DIR transfected HEK 293; anti-Biotin IP; FIG. 14. On the procedure: The Flag-His-DIR expression plasmid was transfected into HEK 293, and cell proteins were extracted 48 h after transfection. Table 2: Plasmid sequences
Protein extraction was performed using Pierce RIPA lysis buffer, 1000 µL of Pierce RIPA lysis buffer containing protease inhibitors was added. Cells were collected and transferred to a clean 1.5 mL EP tube using a cell scraper. After mixing for 1 h on a rotary mixer at 4°C, the cells were centrifuged at 13,000 rpm at 4°C for 10 min to remove cell debris. The supernatant of the cell lysate was divided into two aliquots, each 500 µL, and 10 µL of QD202-Biotin peptide at a concentration of 1 mM was added to one aliquot. From each of the two aliquots, 30 µL of the supernatant was taken and mixed with 10 µL of 4× loading buffer. The mixture was boiled at 100°C for 5 min and then stored frozen at -20°C. For the remaining 470 µL of protein lysate, 2 µL of the antibody (Anti-Biotin, Vector, sp-3000) was added; the mixture was incubated overnight (about 16-18 h) on a rotary shaker at 4°C. 30 µL of Protein G Sepharose beads (Roche, 11243233001) were placed in an EP tube and washed three times with Pierce RIPA lysis buffer. […] The protein was detected by Western blot and dot blot methods (DYKDDDDK-Tag (3B9) mAb, Abmart, M20008; Anti-Biotin, Vector, sp-3000).
A general note: Immunoblotting shows a protein as a band on a membrane.

Assay [4] relates to Male SD rats. The conditions noted are these: rat, in vivo.
In assay [5] the test system is HT22 cells. Briefly: Quantitative detection of ROS (DCFH-DA) in the oxygen-glucose deprivation (OGD) cell model. The conditions noted are these: OGD 16 h, 24 h reoxygenation, OGD plus vehicle = 100%, mean ± standard deviation. The format is cell-based, Mouse. On the procedure: Cell culture: Mouse hippocampal HT22 cells were cultured in DMEM and 10% serum at 37°C in a 5% CO2 incubator.
Oxygen-glucose deprivation (OGD) cell model: HT22 cells were seeded at a density of about 1 ×10^5 into 96-well plates and cultured for 24 h in a 37°C incubator with 5% CO2/95% air in DMEM and 10% serum. After placing HT22 cells in glucose-free medium, they were transferred to a sealed container containing a 5% CO2/95% N2 mixture and incubated at 37°C for 16 h. The glucose-free medium was then replaced with a normal medium containing glucose, and the mixture was incubated for 24 h in a 37°C incubator containing 5% CO2/95% air for reoxygenation.
Experimental grouping: Normally cultured HT22 cells were used as the control group. HT22 cells subjected to OGD were reoxygenated in normal culture medium and treated separately with vehicle, QD202 (0.1 µM, 1 µM, 5 µM), and the ROS scavenger edaravone (200 µM). After 24 h of reoxygenation, quantitative detection of ROS was performed.
Quantitative detection of ROS: Reactive oxygen species were detected using the Beyotime reactive oxygen species detection kit and the fluorescent probe DCFH-DA. DCFH-DA was diluted 1:1000 with serum-free culture medium to a final concentration of 10 µM. The culture medium was removed and the diluted DCFH-DA was added. The cells were then incubated in a 37°C cell culture incubator for 20 min. The cells were washed three times with serum-free cell culture medium to thoroughly remove any DCFH-DA that had not entered the cells. Observation was performed under a fluorescence microscope, followed by quantification of the average fluorescence intensity using Image J software.
Data analysis: Three parallel experiments were performed. The average fluorescence intensity of the OGD plus vehicle group was set as the standard value of 100% for normalization of the fluorescence intensity of cells in each group. Data were expressed as mean ± standard deviation, and […] tests were performed on the data of each group using One-Way ANOVA.

For the substance “QD202: Polypeptide synthesized according to the amino acid sequence set forth in SEQ ID NO: 1; ATP6V1B2 regulator / DIR regulator (YGRKKRRQRRRSPVDVVCS; not fully specified)”, the “excitatory postsynaptic current amplitude” value in assay [1] is “no influence”. Also, the “release frequency of excitatory postsynaptic current” value in assay [1] was “increasing”. Also, the “learning and cognitive functions in the novel object recognition test” value in assay [2] (intragastric, 6.25 mg/kg, ten-month-old APP/PS1 mice, FIG. 9) was “obvious improvement of learning and cognitive functions”. The “learning and cognitive functions in novel object recognition” value in assay [2] (intravenous injection, 1.25 mg/kg, APP/PS1 mice of 10 months old, FIG. 11) was “obvious improvement on learning and cognitive functions”. Also, in assay [3], the “binding to the DIR protein (co-immunoprecipitation)” value is recorded as “can bind”. Further, the infarct volume entry in assay [4] is reported as “lower than that of the Model + QD202 placebo group, with a statistical difference (p<0.05); also recorded: lower than that of the Model + QD202 placebo group, with extremely significant statistical differences (p<0.001)”. The “inhibition rate of ROS” value in assay [5] (0.1 µM) came out at 17.55±12.95%; in assay [5] (1 µM) it was 60.63±8.27%; in assay [5] (5 µM), 70.09±2.84%.
